These results are taken from PubChem BioAssay (NCI).

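Five compound concentrations were applied to cells in 96-well plates for 48 hours; endpoints were derived by simple linear interpolation of the resulting dose-response curve. At the TGI there is no net growth.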

The term TGI denotes the concentration giving total growth inhibition. Read a low TGI as more potent growth arrest.

What all share (assay): DTP human tumour cell line panel, 48 h
The test system of test [1] is A549 NSCLC.
Test [2] concerns HCT-116 colon.
Test [3] relates to IGROV1 ovarian.
The test system of test [4] is K-562 leukemia.
Test [5] concerns MDA-MB-435.
Test [6] deals with NCI-H460 lung.
For test [7], the system named is RPMI-8226 leukemia.
Test [8] has as its system SNB-19 CNS.
Test [9] relates to TK-10 renal.
The test system of test [10] is UO-31 renal.
Test [11] has as its system HCC-2998 colon.

Regarding `COCC1OCCN1C` (configuration not stated), the TGI in test [1], in test [2], in [3], in test [4], in [5] and in test [6] was > 100 µM each time. In addition, the TGI in test [7], in test [8], in test [9] and in test [10] was > 100 µM in each case.
Turning to `CC[N+](CC)(CC)Cc1cn(S(=O)(=O)c2ccccc2)c2ccccc12`, the TGI in test [1], in test [11], in [2], in [3], in [4] and in test [6] was > 100 µM in each case. Further, the TGI in test [7], in test [8], in test [9] and in [10] was > 100 µM throughout.
On to `C=CCN1C(=O)N/C(=C\c2ccc(Cl)cc2)C1=O`, for which the TGI in test [1], in test [2], in test [3], in [4], in test [5] and in test [6] was > 100 µM throughout. The TGI in test [7], in [8] and in [9] was > 100 µM in each case.
`C1=Cc2nc1c(-c1ccccc1)c1ccc([n-]1)c(-c1ccccc1)c1nc(c(-c3ccccc3)c3ccc([n-]3)c2-c2ccccc2)C=C1.[Zn+2]`: the TGI in test [1], in [11], in test [2], in test [3], in test [4] and in [6] was > 100 µM throughout. Besides, the TGI in test [7], in test [8], in test [9] and in test [10] was > 100 µM in each case.
For `OC1OC(c2ccc[nH]2)C(F)(F)C(F)(F)C1(F)F` (configuration not stated), the TGI in test [1], in test [2], in test [3], in test [5], in [6] and in test [7] was > 100 µM throughout. For the same compound, the TGI in test [8], in test [9] and in test [10] was > 100 µM throughout.
Consider `CSC1=N/C(=C\c2ccc(Cl)cc2)C(=O)N1CN1CCOCC1`, for which the TGI in test [1], in test [2], in [3], in test [4], in [5] and in [7] was > 100 µM each time. In addition, the total growth inhibition concentration (TGI) in [8], in test [9] and in [10] was > 100 µM throughout.
Take `CC(C)C1=CC(=O)C(C)(C2=NC(C)(C)CO2)c2ccccc21` (configuration not stated): the TGI in test [1], in test [2], in test [3], in [4], in [6] and in [7] was > 100 µM each time. For the same compound, the TGI in test [8], in test [9] and in [10] was > 100 µM each time.
With `Clc1ccc2c(Cl)ncnc2c1I`, the TGI in [1], in test [11], in [2], in test [3], in test [4] and in [6] was > 100 µM each time. Besides, the TGI in test [7], in test [8], in test [9] and in test [10] was > 100 µM throughout.
Take `Cc1nc2c(s/c(=N\N)n2-c2ccccc2)c(=O)[nH]1`: the concentration for total growth inhibition (TGI) in test [1], in test [11], in test [2], in test [3], in test [4] and in [6] was > 100 µM each time. For the same compound, the TGI in test [7], in test [8], in test [9] and in [10] was > 100 µM each time.
Take `COc1cc(/C=C2\CCC(C)c3c2nc(N)c(C#N)c3-c2cc(OC)c(OC)c(OC)c2)cc(OC)c1OC` (configuration not stated): the total growth inhibition concentration (TGI) in [1], in test [2], in [3], in [4], in [5] and in test [7] was > 100 µM in each case. The concentration for total growth inhibition (TGI) in test [8] and in [9] was > 100 µM each time.
For the compound `O=C(CSc1nnc(-c2ccc(N=Cc3ccc(Cl)cc3)cc2)o1)Nc1ccccc1`, the TGI is > 100 µM in test [1]; 31.1 µM in [2]; > 100 µM in [4]; > 100 µM in test [6]; > 100 µM in [7]; > 100 µM in test [8]. The TGI in [9] and in test [10] was > 100 µM each time.
For the compound `O=S(=O)([N-]c1nc2ccccc2nc1-[n+]1ccccc1)c1ccccc1`, the TGI in [1], in test [11], in test [2], in [3], in [4] and in test [6] was > 100 µM each time. The TGI in [7], in [8], in [9] and in test [10] was > 100 µM throughout.
For `CCCN(CCC)C(=S)N/N=C/c1cccc(C)n1`, the TGI in test [1] amounted to 10.3 µM; in test [2] it was 0.196 µM; in [3] it was 1.56 µM; in test [4], 15 µM; in test [5], 28.8 µM; in [6], 0.748 µM. For the same compound, the TGI is 0.546 µM in [7], > 100 µM in test [8], 0.832 µM in test [9] and 12.2 µM in [10].
`c1ccc2c(NCCCCCCCCNc3cccc4ccccc34)cccc2c1`: the total growth inhibition concentration (TGI) in [1] is > 100 µM; in test [11] it was > 100 µM; in test [2] it was 40 µM; in test [3] it was > 100 µM; in test [4], 80.9 µM; in test [6], 60.5 µM. For the same compound, the TGI in test [7] was > 10 µM; in test [8], > 100 µM; in test [9] it was 43.6 µM; in [10], > 100 µM.
On to `[N-]=[N+]=Nc1cc(=O)n(-c2ccccc2)c(=O)n1-c1ccccc1`, for which the concentration for total growth inhibition (TGI) in [1], in [2], in test [3], in test [4], in test [5] and in test [7] was > 100 µM throughout. For the same compound, the concentration for total growth inhibition (TGI) in [8], in test [9] and in test [10] was > 100 µM in each case.
As to `BrC12C3C4C5C(C(C43)C13OCCO3)C52` (configuration not stated), the TGI in test [1], in test [11], in [2], in test [3], in test [4] and in test [6] was > 100 µM throughout. Also, the TGI in [7], in test [8], in test [9] and in test [10] was > 100 µM each time.
Take `Cc1ccc(-c2cnc(NC3OC(COC(=O)c4ccccc4)C(OC(=O)c4ccccc4)C(OC(=O)c4ccccc4)C3OC(=O)c3ccccc3)s2)cc1` (configuration not stated): the TGI in test [1], in test [2], in test [3], in test [5], in test [6] and in [7] was > 100 µM each time. Moreover, the TGI in test [8], in test [9] and in test [10] was > 100 µM throughout.
`CCCCC1(OC(=O)CCC(=O)O)CCC2(CCC(C)C(C/C=C(C)/C=C/C(O)C(C)/C=C/C(=O)O)O2)OC1CC/C(C)=C/C(=O)O` (configuration not stated): the total growth inhibition concentration (TGI) in [1] is 36.6 µM; in [11] it was 9.98 µM; in [2], > 50.4 µM; in test [3], 4.89 µM; in [4], 9.99 µM; in test [6] it was 18.4 µM. Moreover, the TGI is > 37.3 µM in test [7], 11.8 µM in test [8], 58.5 µM in [9] and 8.14 µM in test [10].
In the case of `O=C1OC(c2ccccc2)(c2ccccc2)CC1CN1CCOCC1` (configuration not stated), the TGI is 24.5 µM in test [1]; 31.4 µM in test [11]; 25.3 µM in [2]; > 100 µM in test [3]; 78.7 µM in test [4]; > 100 µM in [6]. In addition, the TGI is > 100 µM in [8], 31.6 µM in [9] and 99.4 µM in test [10].
In the case of `C#CCOC(=O)C(N)CS` (configuration not stated), the concentration for total growth inhibition (TGI) in test [1], in [2], in test [3], in [4], in [5] and in test [7] was > 100 µM throughout. Moreover, the TGI in [9] and in test [10] was > 100 µM each time.
For the compound `Cc1cccc(NC(=O)CSc2nnc(Cc3ccccc3)o2)c1`, the TGI in test [1], in [11], in test [2], in [3], in test [4] and in test [6] was > 100 µM throughout. Moreover, the TGI in test [8], in [9] and in [10] was > 100 µM each time.
For `Cc1nc(Nc2ccccc2)sc1C(=O)NNC(N)=O`, the TGI in test [1], in test [11], in test [2], in test [3], in test [4] and in [6] was > 100 µM throughout. For the same compound, the TGI in [7], in test [8], in [9] and in test [10] was > 100 µM each time.
Consider `COc1ccccc1NC(=S)Nc1cccc(C)n1`, for which the TGI in test [1], in test [2], in test [3], in [4], in [5] and in [6] was > 100 µM throughout. In addition, the total growth inhibition concentration (TGI) in test [7], in test [8], in [9] and in test [10] was > 100 µM in each case.
`O=C(/C=C(\O)C(=O)O)/C=C(\O)c1ccccc1Cl`: the TGI in test [1], in test [11], in test [2], in [3], in test [4] and in test [6] was > 100 µM in each case. The TGI in test [7], in test [8], in test [9] and in test [10] was > 100 µM in each case.
For the compound `CC1N(O)C(c2ccccc2)C(c2ccccc2)=[N+]1[O-]` (configuration not stated), the TGI in [1], in test [11], in test [2], in test [3], in [4] and in test [6] was > 100 µM in each case. The TGI in test [8], in [9] and in test [10] was > 100 µM each time.
In the case of `CN(C)c1cccc(-c2cc(=O)c3cc4c(cc3[nH]2)OCO4)c1`, the TGI in test [11] was 0.567 µM; in test [3] it was > 47.5 µM; in [4], > 100 µM; in [6] it was 0.987 µM; in test [7], > 100 µM; in test [8], > 57.6 µM. Moreover, the TGI in test [9] and in test [10] was > 100 µM in each case.
Take `COc1ccc2c(c1)CC1NC2Cc2ccccc21` (configuration not stated): the TGI in test [1], in test [11], in [2], in test [3], in test [4] and in [6] was > 100 µM each time. Moreover, the TGI in [7], in test [9] and in [10] was > 100 µM in each case.
Regarding `CCOC(=O)C1=C(C)C2C3C(=O)NC(=O)C3C1(C)C1C(=O)NC(=O)C21` (configuration not stated), the TGI in test [1], in test [11], in test [2], in test [3], in test [4] and in test [6] was > 100 µM in each case. In addition, the TGI in test [7], in [8], in test [9] and in test [10] was > 100 µM throughout.
